According to patent US9937234B2, “Compositions and methods for using and identifying antimicrobial agents” (priority 2013, dated 2018):
“Also recorded” adds a separate entry of the source.

Experiments:
[1] = tested on: B. anthracis Sterne strain bacilli; format: cell-based, Bacillus anthracis
[2] = tested on: B. anthracis Sterne strain spores; format: cell-based, Bacillus anthracis
[3] = tested on: E. coli parent strain (BW25113); assay: Antimicrobial assay against E. coli parent strain (cfu/mL); format: cell-based, Escherichia coli
[4] = tested on: E. coli transposon mutants Tnx 6 and Tnx 15; assay: Secondary screen of E. coli transposon mutants (cfu/mL); format: cell-based, Escherichia coli; details: 6 μg/mL for 2 h
E. coli ΔaceE = assay: Antimicrobial assay against E. coli ΔaceE (cfu/mL); format: cell-based, Escherichia coli; details: 2 h
[5] = tested on: E. coli ΔaceE, ΔaceF and ΔlpdA; assay: Antimicrobial assay against E. coli PDHc subunit deletion mutants (cfu/mL); format: cell-based, Escherichia coli; details: concentrations as high as 48 μg/mL; 2 h

Row | Molecule | antimicrobial activity against the vegetative form (bacilli) [1] | hierarchy of activity in ability to kill bacilli and block spore germination [1] | hierarchy of direct antimicrobial activity [1] | effect on spore form / spore germination [2] | further results
1 | human CXCL9 | directly kill vegetative cells; also recorded: antimicrobial activity against the vegetative form | CXCL10>CXCL9>CXCL11 | hCXCL10>hCXCL9>hCXCL11 | direct inhibitory effects on spore germination; also recorded: spore germination was blocked or reduced | –
2 | human CXCL10 | directly kill vegetative cells; also recorded: antimicrobial activity against the vegetative form | CXCL10>CXCL9>CXCL11 | hCXCL10>hCXCL9>hCXCL11 | direct inhibitory effects on spore germination; also recorded: spore germination was blocked or reduced | EC50 value [1]: 4 to 6 µg/mL; EC50 value, killing effect [1]: 0.33 µg/mL; more potent killing effect, stationary vs exponential phase [1]: > 10 fold; effect on parent strain ([3]; 6 μg/mL): not entirely killed; effect on parent strain ([3]; 10 μg/mL for 2 hours): killed; effect on parent strain ([3]; 36 μg/mL (4.2 μM) and 48 μg/mL (5.6 μM)): killed; susceptibility of parent strain complemented with empty vector or aceE vector ([3]; pBR322 or pUVA411, increasing concentrations, 2 h): remained similarly susceptible; susceptibility of Tnx 6 and Tnx 15 in relation to the parent strain [4]: significantly decreased susceptibility; susceptibility of ΔaceE (E. coli ΔaceE; increasing concentrations, compared to parent strain): significantly less susceptible; also recorded: exhibits resistance; also recorded: resistant; susceptibility of ΔaceE complemented with aceE (E. coli ΔaceE; plasmid pUVA411 (aceE)): restored susceptibility; also recorded: restores the parent strain susceptibility phenotype; susceptibility of ΔaceE, ΔaceF and ΔlpdA deletion mutants [5]: equally resistant
3 | CCL2 [reference compound] | no antimicrobial activity | – | – | no antimicrobial activity | –
4 | CCL5 [reference compound] | no antimicrobial activity | – | – | no antimicrobial activity | –
5 | murine CXCL10 (protein, listed as Mus musculus) MNPSAAVIFCLILLGLSGTQGIPLARTVRCNCIHIDDGPVRMRAIGKLEIIPASLSCPRVEIIATMKKNDEQRCLNPESKTIKNLMKAFSQKRSKRAP | – | CXCL9>CXCL10>CXCL11 | mCXCL9>mCXCL10>mCXCL11 | – | –
6 | murine CXCL11 (protein, listed as Mus musculus) QGFLMFKQGRCLCIGPGMKAVKMAEIEKASVIYPSNGCDKVEVIVTMKAHKRQRCLDPRSKQARLIMQAIEKKNF | – | CXCL9>CXCL10>CXCL11 | mCXCL9>mCXCL10>mCXCL11 | – | –
7 | human CXCL11 (protein, listed as Homo sapiens) QGFPMFKRGRCLCIGPGVKAVKVADIEKASIMYPSNNCDKIEVIITLKENKGQRCLNPKSKQARLIIKKVERKNF | directly kill vegetative cells; also recorded: antimicrobial activity against the vegetative form | CXCL10>CXCL9>CXCL11 | hCXCL10>hCXCL9>hCXCL11 | direct inhibitory effects on spore germination; also recorded: spore germination was blocked or reduced | –
8 | murine CXCL9 (protein, listed as Mus musculus) KSAVLFLLGIIFLEQCGVRGTLVIRNARCSCISTSRGTIHYKSLKDLKQFAPSPNCNKTEIIATLKNGDQTCLDPDSANVKKLMKEWE | – | CXCL9>CXCL10>CXCL11 | mCXCL9>mCXCL10>mCXCL11 | – | –
